Patent US20150231209A1, “STIMULATION OF OVARIAN FOLLICLE DEVELOPMENT AND OOCYTE MATURATION” (THE BOARD OF TRUSTEES OF THE LELAND STANFORD JUNIOR …, priority 2012, published 2015)
pIC50: −log10 of the molar value.

Tests used:
[1] = test system: CCN2; test: CCN2 transcript and protein levels of ovaries after JASP; assay type: cell-based; conditions: 30 min. exposure, ovaries from day 10 mice
Method: (§1) Left upper panel: Paired ovaries from day 10 mice were treated with or without JASP (10 μM) for 30 min. before analyses of F- and G-actin content. Left lower panel: Real-time RT-PCR analyses of CCN2 transcript levels after 30 min. exposure to JASP. Right panel: Immunoblotting analyses of CCN2 protein levels after 30 min. treatment with JASP. Upper panel: Immunoblotting analyses. Lower panel: quantitative analyses of densitometric scanning data. Numbers in parentheses are number of samples used. * p<0.05. […] Ovaries from day 10 mice were treated with or without different concentrations of JASP for 30 min. before grafting into adult hosts treated daily with FSH. Five days later, graft weights were determined.
Paired ovaries from CD-1 mice at different ages were excised in L-15 medium. One ovary from each animal was cut into 2-4 pieces, whereas the contralateral one remained intact. […]
Proteins from NIH3T3 cells or ovaries of mice at day 10 of age were extracted using M-PER Mammalian Protein Extraction Reagent (Thermo, Rockford, Ill.) containing a protease inhibitor cocktail (Thermo). […] Signals were developed using enhanced chemiluminescence (ECL Kit, GE Healthcare) and quantitated using a densitometer. […]

[2] = test system: F-actin/G-actin; test: F-actin and G-actin content of ovaries after JASP; assay type: cell-based; conditions: 10 μM for 30 min., ovaries from day 10 mice
Method: as §1
Paired ovaries from CD-1 mice at different ages were excised in L-15 medium. One ovary from each animal was cut into 2-4 pieces, whereas the contralateral one remained intact. Ovaries were transferred to culture plate inserts (Millipore, Bedford, Mass.) and cultured in MEMa medium with 3 mg/ml BSA, 0.23 mM sodium pyruvate, 50 ug/ml vitamin C, 30 mIU/ml FSH, 50 mg/L streptomycin sulfate, and 75 mg/L penicillin G. After 30 min. of incubation, media were replaced and incubated for another 30 min. […]
Ratios of F-actin to G-actin in intact and fragmented ovaries were determined by F-actin/G-actin in vivo assay kit (Cytoskeleton, Denver, Colo.). […]

[3] = test system: ovarian grafts; test: Ovarian grafting under kidney capsule of FSH-treated hosts: graft weights and follicle counting; assay type: in vivo, mice; conditions: ovaries treated 30 min. with different concentrations, grafted 5 days, hosts treated daily with FSH
Method: FIG. 3. Additive effects of Hippo signaling disruption and Akt stimulation promoted secondary follicle growth. A) Secondary follicles are responsive to IVA treatment. Secondary follicles (115 um in diameter) were isolated from mice at day 10 of age and cultured in vitro with the standard IVA protocol (first day with bPV(hopic) at 3 mM and 740YP at 15 ug/ml, followed by one more day with 740YP alone), followed by treatment with daily FSH (100 ng/ml) for two more days (IVA+FSH). The control groups were either treatment with media alone for four days or treated with the IVA reagent for two days followed by media alone (IVA alone). B) Ovarian fragmentation and IVA treatment led to additive effects on ovarian weight gain and secondary follicle growth. Paired ovaries from mice at day 10 of age were fragmented into three pieces. Fragments from one side were treated with the IVA protocol (bpV(hopic) at 30 uM and 740YP at 150 ng/ml for one day, followed by one more day with 740YP only) whereas fragments from the contralateral side were incubated in media alone. Ovarian fragments were then allo-transplanted into kidney capsules of adult ovariectomized mice with hosts injected with FSH (daily at 1 IU/animal). Five 5 days later, ovarian grafts were retrieved, fixed and weighted. Left panel: graft weights; right panel: Follicle dynamics of grafted ovarian fragments. Percentages of follicles at different stages were determined based on serial sections of grafts. C, Follicle dynamics before and after grafting of intact and fragmented murine ovaries with or without treatment with Akt stimulators. Left: total follicle numbers, Right: follicle dynamics. n=4. Same letter symbols indicate significant differences (p<0.05). D-F. Vitrified human cortical strips were thawed and fragmented into cubes before treatment with Akt stimulators for 2 days followed by grafting into immune-deficient mice for 4 weeks. D. Cortical strips before grafting. Arrow: a secondary follicle, arrowheads: primordial/primary follicles. Scale bar, 100 μm. E. A kidney graft in situ (left) and after isolation (right), showing an antral follicle. F. Histology of two large antral follicles with the side view of one showing an oocyte at the germinal vesicle stage (arrow). Scale bar, 1 mm. Mean±SEM; * p<0.05.
FIG. 7. Pre-treatment with verteporfin and CCN2 antibodies suppressed fragmentation-induced ovarian growth. A, Pretreatment with verteporfin suppressed fragmentation-induced increases in CCN2, but not AMH, transcript levels. Juvenile mice were injected i.p. with verteporfin for 3 h before retrieving ovaries for fragmentation. At 4 h after incubation, transcript levels for CCN2 and AMH were determined by real-time RT-PCR. n=6-12. […] Ovaries from juvenile mice pre-injected with verteporf in for 3 h were fragmented and incubated for 1 h before grafting into FSH-treated hosts for 5 days followed by determination of graft weights. Numbers in parentheses are number of samples used. C, Follicle dynamics of intact and fragmented ovarian grafts from animals with or without verteporf in (VP) pretreatment. n=3-5. D, Incubation of fragmented ovaries with CCN2 antibodies suppressed ovarian weight increases. Paired ovaries were fragmented into 3 pieces followed by incubation with CCN2 antibodies or non-immune-IgG for 18 h before grafting for 5 days. Mean±SEM; *p<0.05.
Left upper panel: Paired ovaries from day 10 mice were treated with or without JASP (10 μM) for 30 min. before analyses of F- and G-actin content. Left lower panel: Real-time RT-PCR analyses of CCN2 transcript levels after 30 min. exposure to JASP. Right panel: Immunoblotting analyses of CCN2 protein levels after 30 min. treatment with JASP. Upper panel: Immunoblotting analyses. Lower panel: quantitative analyses of densitometric scanning data. Numbers in parentheses are number of samples used. * p<0.05. […]

[4] = test system: PTP; conditions: read-out: IC50, PTP inhibitor; cited from earlier work

Compound | CCN2 expression (transcript and protein) [1] | actin polymerization (F- and G-actin content) [2] | weights of ovarian grafts [3] | pIC50 [4]
C/C1=C\[C@H](C)C[C@H](C)OC(=O)C[C@H](c2ccc(O)cc2)NC(=O)[C@@H](Cc2c(Br)[nH]c3ccccc23)N(C)C(=O)[C@H](C)NC(=O)[C@@H](C)C1 [JASP, jasplakinolide] | increased | increased actin polymerization | increased weights of ovarian grafts | 
monoperoxo(picolinato)oxovanadate(V) |  |  |  | 4.74
